# US8883512B1, “Method for diagnosing gestational diabetes, preeclampsia, and fetal growth restriction” (priority 2011, dated 2014)
# “Also recorded” adds a separate entry of the source.
# Experiments:
# [1] = test system: pregnant Sprague-Dawley rats; assay: Streptozotocin (STZ) animal model of gestational diabetes and preeclampsia: blood glucose, liver enzymes, arterial pressure, fetal and placental weights; assay type: in vivo, rat
# Experimental: Pregnant Sprague-Dawley rats on day 6 of gestation were randomly assigned to STZ at 75 mg/kg I.P. or saline-infusion. On day 19, carotid artery catheters were implanted for measurement of arterial pressure, after which the animals were sacrificed, fetal and placental weights determined and blood samples obtained to measure liver enzymes and glucose. Subsequently, using the same procedure, a separate group of pregnant rats (n=10/group) was randomly assigned to receive STZ at 75 mg/kg I.P. or saline infusion. Serum concentrations of retinol, retinoic acid, and retinyl esters were determined in these animals by HPLC on Day 20. Retinoid toxicity was defined as the percentage of retinyl esters >10%.
# (§1) The specific aims of this second experiment were to test the hypothesis that complications associated with GDM could be ameliorated with the retinoic acid receptor-alpha (RAR-alpha) antagonist, Ro41-5253. On day 6 of gestation, Sprague-Dawley rats were randomly assigned to one of five groups: 1) saline-infused controls; 2) STZ, 75 mg/kg I.P.; 3) STZ, 50 mg/kg I.P.; 4) STZ, 75+Ro41-5253 (0.5 mg/kg I.P. daily for 10 d); or 5) STZ, 75+Ro41-5253 (1.0 mg/kg I.P. daily for 10 days). Ro41-5253 was provided as a gift from Roche. On day 19, after carotid artery catheters were implanted for measurement of arterial pressure, the animals were sacrificed, fetal and placental weights were determined, and blood samples were obtained to measure liver enzymes and glucose.
# [2] = test system: pregnant Sprague-Dawley rats; assay: RAR-alpha antagonist Ro41-5253 in the STZ (75 mg/kg) model of gestational diabetes; assay type: in vivo, rat
# Experimental: as §1
# [3] = better designed (low bias) trials of antioxidant supplements; cited from earlier work
# [4] = STZ 75 mg/kg, I.P. Ro41-5253, listed as retinoid receptor antagonist
compound,measurement,setting,value
"CN(N=O)C(=O)N[C@H]1C(O)O[C@H](CO)[C@@H](O)[C@@H]1O (mixture of isomers) [STZ, streptozotocin]",blood glucose levels (mean),"[1]; STZ 75 mg/kg I.P. on gestation day 6, blood on day 19, saline controls 104",533 mg/dL
same,pup weights (mean),"[1]; STZ 75 mg/kg I.P., controls 4.6",1.4 g
same,alanine aminotransferase (mean),"[1]; STZ 75 mg/kg I.P., controls 63",326 U/L
same,alkaline phosphatase (mean),"[1]; STZ 75 mg/kg I.P., controls 123",576 U/L
same,asparate aminotransferase levels (mean),"[1]; STZ 75 mg/kg I.P., controls 152",842 U/L
same,placental weights,"[1]; STZ, day 19",unaffected
same,fetus size versus controls,[1]; groups receiving 75 mg/kg of STZ alone,smaller than controls
same,arterial pressure,"[1]; groups receiving both doses of STZ, P=0.1386",non-significant trend towards increased levels
CCCCCCCOc1cc2c(cc1/C(C)=C/c1ccc(C(=O)O)cc1)C(C)(C)CCS2(=O)=O [Ro41-5253],effect on blood glucose following STZ,"[2]; Ro41-5253 0.5 mg/kg I.P. daily for 10 d, STZ 75 mg/kg",not by the lower dose; also recorded: no effect
same,effect on blood glucose following STZ,"[2]; Ro41-5253 1.0 mg/kg I.P. daily for 10 days, STZ 75 mg/kg",reduced; also recorded: decrease of approximately one-third
same,reduction of alkaline phosphatase levels induced by STZ,"[2]; STZ 75 mg/kg, FIG. 3",about 20%
same,effect on alanine aminotransferase (ALT) elevation following STZ,"[2]; STZ 75 mg/kg, I.P. Ro41-5253",markedly reduced (almost to control levels)
same,effect on aspartate aminotransferase (AST) elevation following STZ,"[2]; STZ 75 mg/kg, I.P. Ro41-5253",markedly reduced (almost to control levels)
same,effect on alkaline phosphatase (AP) levels induced by STZ,"[2]; STZ 75 mg/kg, I.P. Ro41-5253, listed as RAR-alpha antagonist","increased alkaline phosphatase levels in all animals, with or without"
same,effect on alanine aminotransferase (ALT) elevation following STZ,[2]; [4],markedly reduced
same,effect on aspartate aminotransferase (AST) elevation following STZ,[2]; [4],markedly reduced
same,placental weights,"[2]; STZ model, day 19",unaffected
same,effect on trend towards increased arterial pressure,"[2]; higher dose of STZ, doses investigated",did not appear to be ameliorated
CC1=C(/C=C/C(C)=C/C=C/C(C)=C/C=C/C=C(C)/C=C/C=C(C)/C=C/C2=C(C)CCCC2(C)C)C(C)(C)CCC1 [beta-carotene],increased risk of mortality,[3],7%
vitamin A,increased risk of mortality,[3],16%
vitamin E,increased risk of mortality,[3],4%
